# Reference: PubChem BioAssay (NCI)
# Several values for one entry are separate records, joined by “and”; a condition that tells them apart may be missing. Equal entries are not always repeated.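 All cell lines were grown in 96-well plates and treated with compound for 48 hours. GI50 marks 50% less growth. Definition used: TGI = concentration required for complete inhibition of growth.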
# Experiments:
# Test in all cases: NCI anticancer screen, dose series, 48 h
# [1] = system: HCC-2998 colon
# [2] = system: HCT-116 colon
# [3] = system: NCI-H23 lung
# [4] = system: SF-268 CNS
# [5] = system: OVCAR-8 ovarian
# [6] = system: MDA-MB-231 breast
# [7] = system: BT-549 breast
# [8] = system: A549 NSCLC
# [9] = system: SK-MEL-2 melanoma
# [10] = system: MDA-MB-435
SMILES,GI50 [1],TGI [1],GI50 [2],TGI [2],GI50 [3],TGI [3],GI50 [4],TGI [4],GI50 [5],GI50 [6],TGI [6],GI50 [7],TGI [7],GI50 [8],TGI [8],GI50 [9],TGI [9],GI50 [10],TGI [10],TGI [5]
O=C(c1ccco1)c1c(C(F)(F)F)n([O-])c2cc(C(F)(F)F)ccc2[n+]1=O,0.371 µM,0.862 µM,0.23 µM,1.31 µM,1.15 µM,2.62 µM,0.87 µM,2.66 µM,0.688 µM,1.08 µM,2.67 µM,0.486 µM,1.09 µM,0.445 µM,1.02 µM,2.62 µM,6.73 µM,1.47 µM,3.1 µM,–
CC(C)=CC(=O)N[C@H]1CC[C@]2(C)C3CC[C@]4(C)C(C(C)N(C)C)=CCC4C3CCC2[C@H]1O (stereo not given in full),5.22 µM,17.8 µM,1.77 µM,4.21 µM,9.27 µM,22.7 µM,2.35 µM,6.63 µM,13.9 µM,3.34 µM,9.79 µM,5.99 µM,20.8 µM,5.92 µM,22.9 µM,12.4 µM,28.7 µM,2 µM,4.53 µM,> 51.8 µM
CO[C@H]1C[C@](C)(O)Cc2cc3c(c(O)c21)C(=O)c1c(O)cc2c(c1C3=O)O[C@@H]1O[C@@]2(C)[C@H](O)[C@@H](N(C)C)[C@@H]1O,1.48 µM,3.04 µM and 11.9 µM,1.13 µM,2.51 µM and 3.03 µM,–,2.03 µM and 6.54 µM,1.52 µM,7.01 µM and 11.9 µM,1.07 µM,–,8 µM,–,7.3 µM,0.139 µM,1.61 µM and 3.02 µM,–,5.09 µM and 5.82 µM,–,5.23 µM,3.36 µM and 4.97 µM
C[C@]12CC[C@H]3[C@@H](CC4SC(N)=NC45C/C(=N/NC(N)=O)CC[C@]35C)[C@@H]1CCC2=O (stereo not given in full),1.74 µM,3.28 µM,2.09 µM,4.35 µM,1.78 µM,3.32 µM,1.78 µM,4.11 µM,1.85 µM,1.7 µM,3.43 µM,2.84 µM,8.91 µM,2.02 µM,3.89 µM,1.98 µM,4.58 µM,1.33 µM,2.7 µM,3.63 µM
COC(=O)c1c2c(c(C)[n+]([O-])c1C)C(=O)C=C(NCc1cccc(Cl)c1)C2=O,0.329 µM,1.42 µM,0.284 µM,0.976 µM,0.463 µM,2.54 µM,0.737 µM,3.15 µM,0.275 µM,0.261 µM,2.77 µM,1.26 µM,2.63 µM,0.462 µM,2.22 µM,1.04 µM,2.77 µM,0.116 µM,0.251 µM,1.21 µM
O=C(Nc1ccc(F)cc1)Nc1ccc(Br)c(C(F)(F)F)c1,2.38 µM,7.73 µM,1.72 µM,9.33 µM,2.04 µM,9.5 µM,2.97 µM,13.2 µM,2.95 µM,2.18 µM,5.33 µM,2.05 µM,7.4 µM,2.34 µM,12.8 µM,2.38 µM,6.19 µM,2.4 µM,8.59 µM,15.2 µM
CC(C)c1cccc(O)c(=O)c1,1.63 µg/mL,–,3.81 µg/mL,> 75 µg/mL and > 40.2 µM,35 µg/mL,> 75 µg/mL and > 78.8 µM,1.55 µg/mL,23.6 µg/mL and > 61.6 µM,2 µg/mL,6.73 µg/mL,> 75 µg/mL,3.57 µg/mL,42.4 µg/mL,2.42 µg/mL,> 75 µg/mL and > 74.5 µM,6.86 µg/mL,32.4 µg/mL and 95.7 µM,2.14 µg/mL,39 µg/mL,–
CCC1(OC(=O)CN)C(=O)OCc2c1cc1n(c2=O)Cc2cc3ccccc3nc2-1 (stereo not given),0.175 µM,1.08 µM,0.0519 µM and 0.0222 µM,0.265 µM and 0.431 µM,0.0191 µM,0.15 µM and 0.0424 µM,0.00689 µM,14.2 µM,0.04 µM and 0.0227 µM,0.652 µM,6.04 µM,0.459 µM,–,0.0472 µM,2.28 µM,0.492 µM,0.932 µM and 0.407 µM,0.13 µM,0.348 µM and 0.504 µM,–
C=C1SC(=Nc2ccccc2Cl)N(C(=O)c2sc3ccccc3c2Cl)C12CCCCC2,7.27 µM,> 100 µM,7.61 µM,> 100 µM,4.43 µM,> 100 µM,11.7 µM,> 100 µM,6.62 µM,4.9 µM,> 100 µM,70.4 µM,> 100 µM,4.31 µM,> 100 µM,15.8 µM,58.8 µM,29.8 µM,> 100 µM,> 100 µM
C=C1C(=O)O[C@H]2[C@H]1CC/C(Cn1cc(-c3ccc(F)cc3)nn1)=C\CC[C@@]1(C)O[C@@H]21,1.74 µM,3.3 µM,0.295 µM,1.21 µM,1.78 µM,3.71 µM,1.69 µM,3.4 µM,1.66 µM,1.22 µM,2.65 µM,0.838 µM,2.13 µM,3.37 µM,12.9 µM,1.83 µM,3.94 µM,1 µM,2.39 µM,3.85 µM
O=CN1N=C(c2cccc(Nc3ccnc4cc(Cl)ccc34)c2)CC1c1ccccc1 (stereo not given),1.03 µM,5.57 µM,0.364 µM,1.63 µM,0.551 µM,> 36.8 µM,0.768 µM,41.2 µM,0.553 µM,0.858 µM,> 21.3 µM,0.207 µM,1.51 µM,0.501 µM,> 26.2 µM,0.258 µM,0.825 µM,0.0889 µM,0.432 µM,7.5 µM
CN(C)CCCC1(c2ccc(F)cc2)OCc2cc(-c3cc4ccccc4s3)ccc21 (stereo not given),1.67 µM,3.11 µM,1.67 µM,3.22 µM,1.76 µM,3.34 µM,1.65 µM,3.29 µM,1.72 µM,1.52 µM,2.95 µM,2.03 µM,3.89 µM,1.73 µM,3.19 µM,1.8 µM,3.46 µM,1.83 µM,3.32 µM,3.25 µM
